Data reported in EP4671261A1, “NOVEL PEPTIDE EXHIBITING SKIN CONDITION IMPROVEMENT ACTIVITY AND COSMETIC COMPOSITION CONTAINING SAME” (Daebong LS Co., Ltd., priority 2023, dated 2024).
Where a SMILES comes first, the peptide text is derived from it.

Tests used:
[1] = EZ-cytox cell viability assay in macrophages; format: cell-based; conditions: mouse, RAW264.7 macrophage cells, LPS (1µg/ml)
Procedure: (§1) RAW264.7 macrophage cells were obtained from the American Type Culture Collection (ATCC) and cultured in Dulbecco's Modified Eagle's Medium (DMEM) containing 100 units/mL penicillin-streptomycin and 10% (v/v) fetal bovine serum (FBS) at 37°C in a 5% CO2 incubator, and subculture was performed every 2 to 3 days.
(§2) The EZ-cytox assay is a representative method for measuring cell viability using the principle that water-soluble tetrazolium salts (WSTs) react with dehydrogenases of viable cells to produce a water-soluble orange formazan.
(§3) To evaluate cytotoxicity, RAW264.7 cells were seeded at 1.5 × 10^4 cells/well in a 96-well plate using DMEM supplemented with 10% FBS and incubated for 18 hours at 37°C in a 5% CO2 incubator. The test samples were then applied to the cultured cells. After treatment, EZ-cytox was added to each well and incubated for 30 minutes under the same conditions. Absorbance was measured at 450 nm using a microplate reader. The mean absorbance values of each sample group were compared with the control group to determine cell viability.

HaCaT cells = assay: Hyaluronic acid (HA) production, ELISA of culture supernatant; format: cell-based, human; conditions: 10 mM (positive control), untreated group = 100
Procedure: The HaCaT human keratinocyte cell line was obtained from Cell Line Service GmbH (Germany). The cells were cultured in DMEM containing 1% penicillin-streptomycin and 10% fetal bovine serum (FBS) at 37°C in a 5% CO2 incubator, and subculture was performed every 2 to 3 days.
HaCaT cells were seeded at 1.0 × 10^5 cells/well in a 24-well plate and incubated for 24 hours at 37°C in a 5% CO2 incubator. After incubation, the culture medium was replaced with serum-free DMEM, and the peptide prepared in the above Example was applied at concentrations of 50-200 µM, followed by incubation for 24 hours. The supernatant from each experimental group was collected, and the amount of hyaluronic acid (HA) released into the medium was measured. The positive control group was treated with N-acetylglucosamine at a concentration of 10 mM. Measurement of hyaluronic acid production was conducted using a Hyaluronic Acid ELISA Kit (Cusabio Biotechnology Co., Ltd.) following the manufacturer's protocol.

NHDF cells = assay: Procollagen Type I Peptide (PIP) production, EIA of culture supernatant; format: cell-based, Human; conditions: 10 µg/mL (positive control), untreated group = 100
Procedure: Normal Human Dermal Fibroblasts (NHDF) were obtained from Lonza (Lonza Walkersville, Inc.) and cultured in FBM (Fibroblast Basal Medium) supplemented with 0.1% hFGF-B, insulin, GA-1000, and 2% FBS at 37°C in a 5% CO2 incubator. Subculture was performed every 2 to 3 days.
NHDF cells were seeded at 2.0 × 10^4 cells/well in a 24-well plate and incubated for 24 hours at 37°C in a 5% CO2 incubator. After incubation, the culture medium was replaced with serum-free FBM, and the peptide prepared in the above Example was applied at concentrations of 1-100 µM, followed by incubation for 24 hours. The supernatant from each experimental group was collected, and the amount of procollagen released into the medium was measured. The positive control group was treated with ascorbic acid at a concentration of 0.001 v/v%. Measurement of procollagen levels was performed using a Procollagen Type I Peptide (PIP) EIA Kit (Takara Biomedical Co.) according to the manufacturer's protocol. The quantitative results of procollagen type I peptide production following treatment with the peptide of the Example are shown in Table 3 and Fig. 4.

RAW264.7 cells [2] = assay: Inhibition of nitric oxide (NO) production, Griess reagent, LPS-stimulated macrophages; format: cell-based; conditions: 10 µM (positive control), LPS (1µg/ml), relative to LPS control = 100
Procedure: as §1
RAW264.7 cells were seeded at 1.5 × 10^5 cells/well in a 24-well plate and incubated for 18 hours at 37°C in a 5% CO2 incubator. The cells were then treated with the peptide prepared in the above Example at concentrations of 50-200 µM and incubated for 24 hours. From each experimental group, 100 µL of the supernatant was collected into a 96-well plate, and 100 µL of griess reagent was added. The mixture was allowed to react at room temperature for 10 minutes, and absorbance was measured at 540 nm using a microplate reader. […] The relative levels of NO production following the treatments described in the above Example, based on NO production induced by the stimulant (LPS), are shown in Table 1 and Figure 2 below.

RAW264.7 cells [3] = assay: EZ-cytox cell viability assay in macrophages; format: cell-based; conditions: 10 µM (positive control), LPS (1µg/ml)
Procedure: as §1, §2, §3

## N[C@@H](Cc1ccc(O)cc1)C(=O)NCC(=O)N[C@@H](CO)C(=O)N[C@@H](CC(=O)O)C(=O)O [Example, YGSD (Tyr-Gly-Ser-Asp)] (H-YGSD-OH)
[1]; 50 µM
  viability at 50 µM: 98.1 ± 1.81%
[1]; 100 µM
  viability at 100 µM: 99.4 ± 2.02%
[1]; 200 µM
  viability at 200 µM: 99.53 ± 0.95%

## CC(=O)N[C@H]1C(O)O[C@H](CO)[C@@H](O)[C@@H]1O (stereo partly shown) [NAG, N-acetylglucosamine]
HaCaT cells
  Hyaluronic acid production (%): 121.43±10.37%

## O=C1O[C@H]([C@@H](O)CO)C(O)=C1O [Asc.A, ascorbic acid]
NHDF cells
  Procollagen production (%): 175.82±3.91%

## Cc1ccnc(N)c1 [Example 2-AM, 2-amino-4-methylpyridine]
RAW264.7 cells [2]
  NO Production (%): 10.23±0.55%
RAW264.7 cells [3]
  Cell viability (%): 94.12±1.76%
